Measurements: the supplement of paper PMC7394473

Assays:
Details in all cases: 72 h
U2OS [1] = test: drug GRADE (percent of response due to cell death) (% (0-100)); higher = more death-driven response
Protocol: (§1)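 U2OS cells treated with full dose titrations of drug; live and dead cells counted by STACK microscopy (mKate2 nuclei, SYTOX Green) at 72 h, biological triplicates. GR and FV dose responses were fitted with 4-parameter logistic models (GR lower bound -1). GRADE (0-100) is the rescaled angle of a linear fit of FV versus GR at doses with GR >= 0, giving the percentage of the response due to cell death.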

U2OS [2] = test: GRmin (fitted minimal GR value at highest effect) (GR value (dimensionless)); higher = less efficacious
Protocol: as §1

U2OS [3] = test: normalized growth rate inhibition value (GR) relative to untreated cells (GR value (dimensionless, 1 = untreated growth)); higher = less growth inhibition
Protocol: (§2)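 U2OS::Nuc-mKate2 cells seeded in 96-well plates and treated with eight- to ten-point half-log or log dilutions of drug in the presence of 50 nM SYTOX Green. Live (mKate2+) and dead (SYTOX+) cells were counted by IncuCyte STACK live-cell microscopy at 72 h; biological triplicates. GR is the normalised growth-rate inhibition value (Hafner 2016; 1 = untreated growth, <0 = population shrinking). FV is live/(live+dead) cells, not normalised.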

U2OS [4] = test: fractional viability (live cells / total cells); higher = less cell death
Protocol: as §2

U2OS [5] = test: GR50 (concentration giving GR = 0.5)
Protocol: as §1

U2OS [6] = test: FV IC50 (concentration giving fractional viability 0.5); higher = less potent killing
Protocol: as §1

O=C1NC(=O)[C@@H](c2cn3c4c(cccc24)CCC3)[C@@H]1c1c[nH]c2ccccc12 [Tivantinib]
Details	GR50 [µM]	GRmin	drug GRADE
U2OS [1]	–	–	42.8
U2OS [2]	–	-0.31	–
U2OS [5]	0.169	–	–

Details	fractional viability, U2OS [4]	normalized growth rate inhibition value, U2OS [3]
0.00100578 µM	0.99	0.95
0.00317827 µM	0.991	1.03
0.0100433 µM	0.986	0.977
0.0317369 µM	0.988	0.86
0.100289 µM	0.975	0.598
0.316912 µM	0.844	0.299
1.00144 µM	0.613	0.049
3.16456 µM	0.683	-0.107
10 µM	0.481	-0.3

CCC(=O)N1CCN(c2ccc(-n3c(=O)ccc4cnc5ccc(-c6cnc7ccccc7c6)cc5c43)cc2C(F)(F)F)CC1 [Torin 1]
Details	GR50 [µM]	GRmin	drug GRADE
U2OS [1]	–	–	21.4
U2OS [2]	–	0.106	–
U2OS [5]	0.473	–	–

Details	fractional viability, U2OS [4]	normalized growth rate inhibition value, U2OS [3]
0.01 µM	0.977	1.02
0.0316 µM	0.976	0.896
0.1 µM	0.966	0.749
0.316 µM	0.954	0.525
1 µM	0.937	0.404
3.16 µM	0.917	0.275
10 µM	0.895	0.147
31.6 µM	0.792	0.114

CC[C@]1(O)C[C@H]2CN(CCc3c([nH]c4ccccc34)[C@@](C(=O)OC)(c3cc4c(cc3OC)N(C=O)[C@H]3[C@@](O)(C(=O)OC)[C@H](OC(C)=O)[C@]5(CC)C=CCN6CC[C@]43[C@@H]65)C2)C1 [Vincristine]
Details	FV IC50 [nM]	GRmin	drug GRADE
U2OS [1]	–	–	67.6
U2OS [2]	–	0.000271	–
U2OS [6]	10.7	–	–

Details	fractional viability, 0.00316 µM	fractional viability, 0.0316 µM	fractional viability, 0.316 µM	fractional viability, 3.16 µM	fractional viability, 31.6 µM	normalized growth rate inhibition value, 0.00316 µM	normalized growth rate inhibition value, 0.0316 µM	normalized growth rate inhibition value, 0.316 µM	normalized growth rate inhibition value, 3.16 µM	normalized growth rate inhibition value, 31.6 µM
U2OS [3]	–	–	–	–	–	0.251	0.0808	0.0568	-0.0172	0.0544
U2OS [4]	0.548	0.426	0.472	0.427	0.415	–	–	–	–	–

CC[C@@H]1C(=O)N(C)c2cnc(Nc3ccc(C(=O)N[C@H]4CC[C@H](N5CCN(CC6CC6)CC5)CC4)cc3OC)nc2N1C(C)C [Volasertib]
Details	GR50 [µM]	GRmin	drug GRADE
U2OS [1]	–	–	17.9
U2OS [2]	–	-0.24	–
U2OS [5]	0.0162	–	–

Details	fractional viability, U2OS [4]	normalized growth rate inhibition value, U2OS [3]
0.000100578 µM	0.988	0.973
0.000317827 µM	0.986	1.07
0.00100433 µM	0.987	1.1
0.00317369 µM	0.986	1
0.0100289 µM	0.964	0.717
0.0316912 µM	0.86	0.122
0.100144 µM	0.725	-0.136
0.316456 µM	0.563	-0.25
1 µM	0.548	-0.259
